Reference: US4532255A, “Amidine compounds and anticomplement agent comprising same” (Torii & Co., Ltd., priority 1980, dated 1985)

Columns and labels:
Trypsin = biological target: T1, Trypsin (Bos taurus, UniProt P00760); assay: Anti-trypsin activity (hydrolysis of TAME); format: biochemical; conditions: for IC50: molar concentration inhibiting 50% of TAME hydrolysis, read-out: Trypsin ID50
T1 sequence (P00760 24-246): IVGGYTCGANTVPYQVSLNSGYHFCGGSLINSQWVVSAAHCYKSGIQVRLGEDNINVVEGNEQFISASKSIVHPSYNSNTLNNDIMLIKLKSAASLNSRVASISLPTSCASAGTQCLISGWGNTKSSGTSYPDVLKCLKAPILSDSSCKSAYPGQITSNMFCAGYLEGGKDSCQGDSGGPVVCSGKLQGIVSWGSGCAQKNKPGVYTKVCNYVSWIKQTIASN
Experimental: (§1) The anti-trypsin, anti-plasmin, anti-kallikrein and anti-thrombin activities were determined according to the method of Muramatsu et al. [M. Muramatsu, T. Onishi, S. Makino, Y. Hayashi and S. Fujii, J. of Biochem., 58, 214 (1965)]. […] The compound No. corresponds to the compound number shown in Examples.

Plasmin = Plasmin (Homo sapiens, UniProt P00747); assay: Anti-plasmin activity (hydrolysis of TAME); format: biochemical; conditions: for IC50: molar concentration inhibiting 50% of TAME hydrolysis, read-out: Plasmin ID50; for inhibition at 10 µM: at 1×10^-5 M, read-out: Plasmin percentage inhibition
Chain of Plasmin (P00747 581-810 limits assumed, species assumed): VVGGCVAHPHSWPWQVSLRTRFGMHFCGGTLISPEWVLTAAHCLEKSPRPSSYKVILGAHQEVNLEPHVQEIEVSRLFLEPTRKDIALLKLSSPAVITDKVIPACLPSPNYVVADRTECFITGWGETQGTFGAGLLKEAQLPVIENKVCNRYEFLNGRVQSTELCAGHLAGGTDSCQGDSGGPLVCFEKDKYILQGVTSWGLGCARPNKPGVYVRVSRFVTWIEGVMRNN
Chain of Plasmin (P00747 97-580 partner limits assumed, species assumed): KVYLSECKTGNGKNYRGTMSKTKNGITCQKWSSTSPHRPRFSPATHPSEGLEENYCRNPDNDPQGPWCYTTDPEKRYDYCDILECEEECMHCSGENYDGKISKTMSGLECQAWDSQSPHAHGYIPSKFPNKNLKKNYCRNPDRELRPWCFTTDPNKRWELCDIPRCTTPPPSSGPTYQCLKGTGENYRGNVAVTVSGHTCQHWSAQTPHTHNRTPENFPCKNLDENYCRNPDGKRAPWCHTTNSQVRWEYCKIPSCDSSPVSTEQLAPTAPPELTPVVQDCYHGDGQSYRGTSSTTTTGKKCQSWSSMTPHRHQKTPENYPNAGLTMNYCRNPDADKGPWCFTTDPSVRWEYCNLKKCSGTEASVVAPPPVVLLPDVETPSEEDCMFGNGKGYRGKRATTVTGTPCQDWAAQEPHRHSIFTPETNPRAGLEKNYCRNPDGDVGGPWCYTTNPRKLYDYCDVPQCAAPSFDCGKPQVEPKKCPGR
Experimental: as §1

Thrombin = Thrombin (Homo sapiens, UniProt P00734); assay: biochemical; conditions: for IC50: molar concentration inhibiting 50% of TAME hydrolysis, read-out: Thrombin ID50; for inhibition at 10 µM: at 1×10^-5 M, read-out: Thrombin percentage inhibition
Experimental: The anti-trypsin, anti-plasmin, anti-kallikrein and anti-thrombin activities were determined according to the method of Muramatsu et al. [M. Muramatsu, T. Onishi, S. Makino, Y. Hayashi and S. Fujii, J. of Biochem., 58, 214 (1965)]. The data summarized in Table 1 are expressed in terms of molar concentration (ID50) of the test compound which inhibits 50% of the activity of each enzyme to hydrolyze TAME (tosylalginine methyl ester). The compound No. corresponds to the compound number shown in Examples.

C1r = biological target: T2, C1r (Homo sapiens, UniProt P00736); assay: Anti-C1 esterase (C1r) activity (hydrolysis of AAME); format: biochemical; conditions: for IC50: AAME hydrolysis, read-out: Anti-C1 activity, C1r ID50
T2 sequence (P00736 464-705 limits assumed): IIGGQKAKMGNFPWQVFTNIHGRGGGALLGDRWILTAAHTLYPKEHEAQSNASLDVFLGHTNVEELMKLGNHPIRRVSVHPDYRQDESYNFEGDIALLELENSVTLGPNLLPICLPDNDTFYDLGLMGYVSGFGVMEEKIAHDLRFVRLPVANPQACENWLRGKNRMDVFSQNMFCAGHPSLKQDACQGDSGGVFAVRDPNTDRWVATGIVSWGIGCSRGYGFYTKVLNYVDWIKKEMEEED
T2 sequence (P00736 18-463 partner limits assumed): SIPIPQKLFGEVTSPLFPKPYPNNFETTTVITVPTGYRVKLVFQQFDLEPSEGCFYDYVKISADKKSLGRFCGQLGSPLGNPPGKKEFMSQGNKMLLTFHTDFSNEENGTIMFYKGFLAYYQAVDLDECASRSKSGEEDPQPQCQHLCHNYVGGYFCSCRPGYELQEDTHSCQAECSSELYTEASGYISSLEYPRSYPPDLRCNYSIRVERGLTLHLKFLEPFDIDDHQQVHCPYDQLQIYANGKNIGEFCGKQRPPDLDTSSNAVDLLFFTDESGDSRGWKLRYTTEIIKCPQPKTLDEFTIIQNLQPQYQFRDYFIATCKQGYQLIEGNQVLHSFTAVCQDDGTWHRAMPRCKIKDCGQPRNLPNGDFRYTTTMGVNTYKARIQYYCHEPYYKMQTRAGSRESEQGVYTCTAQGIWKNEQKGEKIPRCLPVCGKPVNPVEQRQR
Experimental: The anti-Cl esterase ([…]) activity was determined according to the method of Okamura et al. [K. Okamura, M. Muramatsu and S. Fujii, Biochem. Biophys.

C1s = biological target: T3, C1s (Homo sapiens, UniProt P09871); assay: biochemical; conditions: ATEE hydrolysis; read-out: Anti-C1 activity, C1s ID50
T3 sequence (P09871 438-688 limits assumed): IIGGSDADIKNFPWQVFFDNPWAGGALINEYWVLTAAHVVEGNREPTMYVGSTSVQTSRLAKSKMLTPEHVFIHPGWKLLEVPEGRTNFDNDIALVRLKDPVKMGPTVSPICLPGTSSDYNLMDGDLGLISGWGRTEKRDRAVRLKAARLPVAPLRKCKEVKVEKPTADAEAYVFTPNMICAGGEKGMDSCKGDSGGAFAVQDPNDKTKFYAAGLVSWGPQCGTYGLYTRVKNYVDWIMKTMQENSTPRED
T3 sequence (P09871 16-437 partner limits assumed): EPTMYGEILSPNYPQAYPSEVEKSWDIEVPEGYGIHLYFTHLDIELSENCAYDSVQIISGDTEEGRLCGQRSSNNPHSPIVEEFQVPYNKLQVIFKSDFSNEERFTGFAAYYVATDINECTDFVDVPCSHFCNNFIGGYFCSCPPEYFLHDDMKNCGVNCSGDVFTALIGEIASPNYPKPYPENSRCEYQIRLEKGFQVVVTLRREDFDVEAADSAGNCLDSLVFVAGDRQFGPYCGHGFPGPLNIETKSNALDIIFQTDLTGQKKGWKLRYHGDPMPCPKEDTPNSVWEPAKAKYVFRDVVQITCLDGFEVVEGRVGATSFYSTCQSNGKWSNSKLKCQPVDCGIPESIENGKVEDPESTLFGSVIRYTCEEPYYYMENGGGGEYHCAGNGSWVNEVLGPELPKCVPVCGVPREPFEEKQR
Experimental: The anti-Cl esterase (Clr, Cls) activity was determined according to the method of Okamura et al. [K. Okamura, M. Muramatsu and S. Fujii, Biochem. Biophys. […] The figures in Table 2 have the following meanings:
Cls: Molar concentration of the test compound which inhibits 50% of the ability of Cls to hydrolyse ATEE (acetyltyrosin ethyl ester).

[1] = system: complement mediated hemolysis; assay: Inhibition of complement mediated hemolysis; format: cell-based
Experimental: The principle of this method is based on the fact that hemolysis is caused by the activation of complement, when the latter is added to a complex (immune complex) of erythrocytes and the antibody thereof. The degree of hemolysis varies in proportion to the amount of complement added. Therefore, when a known amount of complement admixed with a C1 esterase inhibitor is used, the hemolysis must be suppressed in proportion to the inhibitory activity.

Kallikrein = assay: Anti-kallikrein activity (hydrolysis of TAME); format: biochemical; conditions: at 1×10^-5 M

| Compound | IC50 (Trypsin) | IC50 (Plasmin) | IC50 (Thrombin) | IC50 (C1r) | IC50 (C1s) | Inhibition of complement mediated hemolysis (%) ([1]; 1 × 10^-4) | Inhibition of complement mediated hemolysis (%) ([1]; 1 × 10^-5) | Inhibition of complement mediated hemolysis (%) ([1]; 1 × 10^-6) | Inhibition of complement mediated hemolysis (%) ([1]; 1 × 10^-7) | Kallikrein percentage inhibition (Kallikrein) | inhibition at 10 µM (Plasmin) | inhibition at 10 µM (Thrombin) | inhibition at 10 µM (C1r; at 1×10^-5 M, read-out: Anti-C1 activity, C1r percent inhibition) | inhibition at 10 µM (Trypsin; at 1×10^-5 M, read-out: Trypsin percentage inhibition) |
| --- | --- | --- | --- | --- | --- | --- | --- | --- | --- | --- | --- | --- | --- | --- |
| N=C(N)c1ccc2cc(OC(=O)c3ccc4c(c3)OCO4)ccc2c1 [Compound 10] | 200 nM | 50000 nM | 4000 nM | 200 nM | 200 nM | 97% | 75% | 9% | 2% | 31% |  |  |  |  |
| N=C(N)c1ccc2cc(OC(=O)c3ccc(O)cc3)ccc2c1 [Compound 11, 6-amidino-2-naphthyl 4-hydroxybenzoate] | 300 nM |  | 7000 nM | 100 nM | 200 nM | 96% | 56% | 6% | 13% | 21% | 36% |  |  |  |
| CC(=O)Oc1ccc(C(=O)Oc2ccc3cc(C(=N)N)ccc3c2)cc1 [Compound 13] | 400 nM | 2000 nM |  | 300 nM | 300 nM | 94% | 42% | 5% | 4% | 24% |  | 39% |  |  |
| N=C(N)c1ccc2cc(OC(=O)c3ccc(Cl)cc3)ccc2c1 [Compound 16] | 3000 nM | 500 nM |  |  | 400 nM | 99% | 77% | 24% | 10% | 31% |  | 38% | 39% |  |
| N#Cc1ccc(C(=O)Oc2ccc3cc(C(=N)N)ccc3c2)cc1 [Compound 19] |  | 3000 nM | 2000 nM | 4000 nM | 8000 nM | 98% | 86% | 22% | 1% | 11% |  |  |  | 47% |
| N=C(N)c1ccc2cc(OC(=O)c3ccc(N)cc3)ccc2c1 [Compound 20, 6-amidino-2-naphthyl 4-aminobenzoate] | 60 nM |  | > 10000 nM | 200 nM | 200 nM | 95% | 46% | 5% | 0% | 31% | 27% |  |  |  |
| CN(C(=N)N)c1ccc(C(=O)Oc2ccc3cc(C(=N)N)ccc3c2)cc1 [Compound 28, 6-amidino-2-naphthyl 4-(Nα-methyl)guanidinobenzoate] | 600 nM | 600 nM |  | 3000 nM | 300 nM | 100% | 99% | 60% | 6% | 20% |  | 17% |  |  |
| CSc1ccc(C(=O)Oc2ccc3cc(C(=N)N)ccc3c2)cc1 [Compound 30] | 2000 nM | 2000 nM | 4000 nM | 500 nM | 300 nM | 14% | 90% | 40% | 6% | 41% |  |  |  |  |
| CC(=O)c1ccc(C(=O)Oc2ccc3cc(C(=N)N)ccc3c2)cc1 [Compound 32] | 2000 nM | 3000 nM | 4000 nM | 2000 nM | 3000 nM | 93% | 97% | 67% | 22% | 26% |  |  |  |  |
| N=C(N)c1ccc2cc(OC(=O)c3cccc(C(F)(F)F)c3)ccc2c1 [Compound 33] | 8000 nM | 3000 nM |  | 1000 nM | 3000 nM | 75% | 39% | 7% | 22% | 13% |  | 40% |  |  |
